From US20230293535A1, “ERBB/BTK INHIBITORS” (Dizal (Jiangsu) Pharmaceutical Co., Ltd., priority 2018, published 2023)

Experiments:
Assay type in all cases: cell-based
[1] = molecular target: T1, human Her2 exon 20 insertion mutation YVMA (Homo sapiens, UniProt P04626, INS775YVMA); assay: Her2 Exon 20 YVMA insertion cellular phosphorylation inhibition (MSD p-Her2 Y1248/total Her2); settings: Her2 YVMAins cells, 4 h compound;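 note: lentivirally transduced NIH-3T3 cells in 1% FBS medium, electrochemiluminescent MSD read-out, graded compound concentrations at 37 °C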
T1 construct: expressed in transfected cells; host or cells: NIH-3T3, lentiviral transduction, puromycin selection

[2] = molecular target: T2, human EGFR exon 20 H773_V774insNPH (Homo sapiens, UniProt P00533, INS773NPH); assay: EGFR Exon20 NPH insertion cellular phosphorylation inhibition (MSD pEGFR Y1068/total EGFR); settings: Ba/F3 EGFR NPH ins cells, 4 h compound, p-EGFR(Y1068)/total EGFR;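 note: IL3-independent Ba/F3 cells with constitutively phosphorylated EGFR, compound exposure at 37 °C under 5% CO2, electrochemiluminescent MSD measurement of the p-EGFR to total EGFR ratio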
T2 construct: host or cells: Ba/F3

DB cells = assay: BTK (wt) cell proliferation, DB (CellTiter-Glo, 72 h); settings: Homo sapiens, DB, DB cells, CellTiter-Glo, read-out: Non-BCR activated DB GI50;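 note: DB cells in 384-well plates given a dilution series of compound, viable cells read by ATP luminescence, growth expressed versus DMSO control after subtracting a time-zero plate reading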
Description: OCI-LY-10 at 3,750 cells/well, TMD-8 and Ri-1 at 2,000 cells/well, and DB at 1,250 cells/well, respectively, were sorted into 384-well plates in RPMI1640 medium with 10% FBS. After overnight incubation, all cells were incubated with compound at a series of concentrations. Meanwhile, a duplicated plate of each cell line was prepared for measuring G0 value. The dosed plates were further incubated for 72 hours and the number of viable cells was measured by CellTiter-Glo® Luminescent Cell Viability Assay (Promega), a luminescent method for determining the number of viable cells through measurement of cellular ATP concentration using Envision plate reader (PerkinElmer). The percentage of proliferation was calculated as: % Proliferation = 100 × (G3 value of sample well - G0 value)/(G3 value of DMSO control - G0 value).

Ba/F3 EGFR NPH ins cells = assay: Cell proliferation, Ba/F3 EGFR NPH ins (CellTiter-Glo, 72 h); settings: Ba/F3 EGFR, 72 h, Ba/F3 EGFR NPH ins, 72 h proliferation; read-out: EGFR Exon20 NPH insertion GI50;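 note: IL3-independent cells carrying constitutively phosphorylated EGFR, compound dilution series, viable cells quantified by ATP luminescence, growth relative to DMSO wells after subtracting pre-dosing (day 0) baseline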
WT EGFR = molecular target: T3, WT EGFR (Homo sapiens, UniProt P00533); assay: WT EGFR cellular phosphorylation inhibition in A-431 (hEGF stimulated, MSD); settings: A431 cells, 4 h compound, then 100 ng/ml hEGF 10 min;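 note: electrochemiluminescence read-out of EGFR Tyr1068 phosphorylation expressed as ratio to total EGFR, cells kept in medium with 1% FBS, compounds tested as a concentration series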
T3 construct: host or cells: A-431

Ba/F3 EGFR ASV ins cells = assay: Cell proliferation, Ba/F3 EGFR ASV ins (CellTiter-Glo, 72 h); settings: Ba/F3 EGFR, 72 h, Ba/F3 EGFR ASV ins, 72 h proliferation; read-out: EGFR Exon20 ASV insertion GI50;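 note: IL3-independent Ba/F3 cells transduced with EGFR V769_D770insASV, cellular ATP luminescence after compound exposure, growth relative to DMSO control with the day-0 baseline reading subtracted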
OCI-LY-10 cells = assay: BTK (wt) cell proliferation, OCI-LY-10 (CellTiter-Glo, 72 h); settings: Homo sapiens, OCI-Ly10, 72 h, OCI-LY-10 cells, 72 h, CellTiter-Glo; read-out: BTK WT OCI-LY-10 GI50;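 note: viable cells quantified via cellular ATP luminescence, proliferation given as percent of DMSO control after subtracting a duplicate plate read at time of dosing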
[3] = test system: NCI-H1975 EGFR L858R/T790M cells; assay: Cell proliferation, NCI-H1975 EGFR L858R/T790M (CellTiter-Glo, 72 h); settings: Homo sapiens, NCI-H1975, 72 h, NCI-H1975, 72 h proliferation; read-out: EGFR L858R and T790M mutation GI50;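 note: viable cells quantified by luciferase-based ATP luminescence, proliferation expressed relative to DMSO-treated wells (100%) after subtracting a parallel plate read at the time of dosing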
[4] = test system: Her2 exon 20 insertion YVMA transduced NIH-3T3 cell line; assay: Cell proliferation, Her2 YVMAins NIH-3T3 (CellTiter-Glo, 72 h); settings: Mus musculus, NIH3T3, 72 h, Her2 YVMAins cells, 72 h proliferation; read-out: Her2 Exon 20 YVMA insertion GI50;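 note: viable cells quantified by ATP luminescence, growth over a day-zero baseline plate expressed as percent of DMSO control growth, compound dilution series in 10% FBS medium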
TMD-8 cells = assay: BTK (wt) cell proliferation, TMD-8 (CellTiter-Glo, 72 h); settings: Homo sapiens, TMD8, 72 h, TMD-8 cells, 72 h, CellTiter-Glo; read-out: BTK WT TMD-8 GI50;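 note: viable cells quantified by ATP-based luminescence, proliferation expressed as percent of DMSO control after subtracting a time-zero baseline plate read at dosing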
[5] = molecular target: T4, human EGFR exon 20 V769_D770insASV (Homo sapiens, UniProt P00533, INS769ASV); assay: EGFR Exon20 ASV insertion cellular phosphorylation inhibition (MSD pEGFR Y1068/total EGFR); settings: Ba/F3 EGFR ASV ins cells, 4 h compound, p-EGFR(Y1068)/total EGFR;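 note: electrochemiluminescent readout on an MSD SECTOR Imager, IL3-independent transduced cells in medium with 1% FBS, compound concentration series at 37 °C and 5% CO2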
T4 construct: expressed in transfected cells; host or cells: Ba/F3 (DSMZ ACC-300), lentiviral transduction, puromycin selection, IL3 depletion

WT EGFR cell line A-431 = assay: Cell proliferation, WT EGFR A431 (CellTiter-Glo, 72 h); settings: Homo sapiens, A-431, 72 h, A431, 72 h proliferation; read-out: EGFR WT A431 GI50;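 note: proliferation from a luminescent ATP viability signal, expressed as 100 × (treated minus time-zero plate) over (DMSO control minus time-zero plate), cells grown with 10% FBS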
Description: WT or mutant cells were seeded in 384 well plates at appropriate concentrations with corresponding growth media supplemented with 10% FBS, for each experiment, identical plates were prepared in duplicates, and the plates were incubated overnight. On the next day, one of each duplicated plates was dosed with tested compounds at a series of concentrations, and another one of the duplicated plate was analysied for G0 value. The dosed plates were incubate for another 72 h at 37° C. with 5% CO2 and the number of viable cells in each well of the G0 plates or the dosed plates were measured by CellTiter-Glo® Luminescent Cell Viability Assay (Promega). This assay is a luminescent method for determining the number viable cells through measurement of cellular ATP concentration by detection of luciferase activity. Detection reagents (15 µl) was dispensed into per well, and the plates were incubate for 30 min at room temperature. Then, the luminescence in each well was measured using the Envision plate reader (PerkinElmer). The percentage of proliferation was calculated based on the formula: %Proliferation= 100 × (G3 value of sample well-Go value)/(G3 value of DMSO control-Go value).

EGFR L858R&T790M = molecular target: T5, EGFR L858R&T790M (Homo sapiens, UniProt P00533, L858R/T790M); assay: EGFR L858R and T790M cellular phosphorylation inhibition in NCI-H1975 (MSD); settings: NCI-H1975 cells, 4 h compound, p-EGFR(Y1068)/total EGFR; read-out: EGFR L858R and T790M mutation IC50;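 note: phosphorylated and total EGFR detected by electrochemiluminescence, cells exposed to compound in medium containing 1% FBS at 37 °C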
T5 construct: host or cells: NCI-H1975

Ri-1 cells = assay: BTK (wt) cell proliferation, Ri-1 (CellTiter-Glo, 72 h); settings: Ri-1, 72 h, Ri-1 cells, 72 h, CellTiter-Glo; read-out: BTK WT Ri-1 GI50;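 note: viable cells quantified as cellular ATP luminescence, proliferation normalized to a time-zero plate and the DMSO control, compounds tested across a dilution series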

T5 sequence (P00533 25-1210 T790M/L858R): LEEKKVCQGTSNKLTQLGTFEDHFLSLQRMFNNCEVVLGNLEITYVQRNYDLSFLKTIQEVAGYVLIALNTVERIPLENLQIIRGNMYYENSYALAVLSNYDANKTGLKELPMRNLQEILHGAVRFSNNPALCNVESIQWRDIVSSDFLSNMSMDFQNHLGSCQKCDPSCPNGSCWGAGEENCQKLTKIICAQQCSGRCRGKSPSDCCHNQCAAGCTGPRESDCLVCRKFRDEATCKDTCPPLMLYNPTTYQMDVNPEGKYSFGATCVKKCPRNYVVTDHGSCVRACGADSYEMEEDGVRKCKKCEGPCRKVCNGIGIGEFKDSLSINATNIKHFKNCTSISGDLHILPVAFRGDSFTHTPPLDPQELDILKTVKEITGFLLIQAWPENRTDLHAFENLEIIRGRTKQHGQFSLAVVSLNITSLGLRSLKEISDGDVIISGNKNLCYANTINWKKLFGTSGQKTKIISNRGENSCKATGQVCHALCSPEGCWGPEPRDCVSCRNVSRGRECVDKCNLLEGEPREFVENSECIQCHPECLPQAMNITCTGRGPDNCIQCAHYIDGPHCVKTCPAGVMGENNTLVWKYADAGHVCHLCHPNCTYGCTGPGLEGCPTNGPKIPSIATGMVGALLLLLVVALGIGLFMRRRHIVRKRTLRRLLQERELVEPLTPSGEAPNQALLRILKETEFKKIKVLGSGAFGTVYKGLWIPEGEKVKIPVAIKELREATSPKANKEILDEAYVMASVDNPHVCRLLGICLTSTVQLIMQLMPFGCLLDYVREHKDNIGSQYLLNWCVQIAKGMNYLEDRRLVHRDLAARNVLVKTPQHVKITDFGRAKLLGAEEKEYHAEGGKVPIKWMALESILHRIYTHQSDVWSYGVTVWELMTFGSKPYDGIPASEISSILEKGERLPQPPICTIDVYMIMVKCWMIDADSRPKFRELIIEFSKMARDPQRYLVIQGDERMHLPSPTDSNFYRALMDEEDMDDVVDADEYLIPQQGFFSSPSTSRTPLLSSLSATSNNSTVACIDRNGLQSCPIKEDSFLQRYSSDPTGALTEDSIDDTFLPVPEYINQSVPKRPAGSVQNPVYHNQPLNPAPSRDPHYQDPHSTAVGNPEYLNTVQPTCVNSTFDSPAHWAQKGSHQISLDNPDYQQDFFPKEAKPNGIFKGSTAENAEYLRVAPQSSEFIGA
T3 sequence (P00533 25-1210): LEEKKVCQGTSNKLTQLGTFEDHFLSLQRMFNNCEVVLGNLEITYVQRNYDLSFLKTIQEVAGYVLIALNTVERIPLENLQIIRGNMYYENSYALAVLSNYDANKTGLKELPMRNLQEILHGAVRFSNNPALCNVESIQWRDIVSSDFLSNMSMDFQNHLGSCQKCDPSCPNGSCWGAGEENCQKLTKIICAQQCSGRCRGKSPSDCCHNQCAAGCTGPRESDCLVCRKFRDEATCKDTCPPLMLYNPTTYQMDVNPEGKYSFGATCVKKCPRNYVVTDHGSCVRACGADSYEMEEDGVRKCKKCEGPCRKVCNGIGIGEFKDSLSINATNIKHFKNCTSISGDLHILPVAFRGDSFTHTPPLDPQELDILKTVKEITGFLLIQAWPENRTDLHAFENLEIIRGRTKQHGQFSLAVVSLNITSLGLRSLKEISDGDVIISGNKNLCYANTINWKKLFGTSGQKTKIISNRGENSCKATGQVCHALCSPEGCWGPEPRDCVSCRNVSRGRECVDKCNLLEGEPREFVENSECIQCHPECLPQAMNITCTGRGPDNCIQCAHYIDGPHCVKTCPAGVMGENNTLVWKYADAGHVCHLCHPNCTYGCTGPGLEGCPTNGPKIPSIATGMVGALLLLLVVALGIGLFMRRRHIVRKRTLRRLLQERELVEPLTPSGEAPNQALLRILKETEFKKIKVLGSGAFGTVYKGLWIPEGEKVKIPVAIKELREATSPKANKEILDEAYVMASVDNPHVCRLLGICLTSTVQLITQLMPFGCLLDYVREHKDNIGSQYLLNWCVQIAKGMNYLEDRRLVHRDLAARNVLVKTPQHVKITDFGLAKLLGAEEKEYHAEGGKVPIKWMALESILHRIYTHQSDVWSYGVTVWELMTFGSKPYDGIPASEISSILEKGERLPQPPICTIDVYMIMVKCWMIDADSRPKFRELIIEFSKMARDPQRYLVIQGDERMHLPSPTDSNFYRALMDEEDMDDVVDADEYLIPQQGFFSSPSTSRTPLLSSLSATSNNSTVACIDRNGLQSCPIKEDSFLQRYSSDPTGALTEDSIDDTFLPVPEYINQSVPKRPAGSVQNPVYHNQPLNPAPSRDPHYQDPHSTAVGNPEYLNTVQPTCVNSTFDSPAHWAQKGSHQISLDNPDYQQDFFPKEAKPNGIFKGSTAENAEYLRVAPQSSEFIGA
T4 sequence (P00533 with tags, fused parts or gaps INS769ASV): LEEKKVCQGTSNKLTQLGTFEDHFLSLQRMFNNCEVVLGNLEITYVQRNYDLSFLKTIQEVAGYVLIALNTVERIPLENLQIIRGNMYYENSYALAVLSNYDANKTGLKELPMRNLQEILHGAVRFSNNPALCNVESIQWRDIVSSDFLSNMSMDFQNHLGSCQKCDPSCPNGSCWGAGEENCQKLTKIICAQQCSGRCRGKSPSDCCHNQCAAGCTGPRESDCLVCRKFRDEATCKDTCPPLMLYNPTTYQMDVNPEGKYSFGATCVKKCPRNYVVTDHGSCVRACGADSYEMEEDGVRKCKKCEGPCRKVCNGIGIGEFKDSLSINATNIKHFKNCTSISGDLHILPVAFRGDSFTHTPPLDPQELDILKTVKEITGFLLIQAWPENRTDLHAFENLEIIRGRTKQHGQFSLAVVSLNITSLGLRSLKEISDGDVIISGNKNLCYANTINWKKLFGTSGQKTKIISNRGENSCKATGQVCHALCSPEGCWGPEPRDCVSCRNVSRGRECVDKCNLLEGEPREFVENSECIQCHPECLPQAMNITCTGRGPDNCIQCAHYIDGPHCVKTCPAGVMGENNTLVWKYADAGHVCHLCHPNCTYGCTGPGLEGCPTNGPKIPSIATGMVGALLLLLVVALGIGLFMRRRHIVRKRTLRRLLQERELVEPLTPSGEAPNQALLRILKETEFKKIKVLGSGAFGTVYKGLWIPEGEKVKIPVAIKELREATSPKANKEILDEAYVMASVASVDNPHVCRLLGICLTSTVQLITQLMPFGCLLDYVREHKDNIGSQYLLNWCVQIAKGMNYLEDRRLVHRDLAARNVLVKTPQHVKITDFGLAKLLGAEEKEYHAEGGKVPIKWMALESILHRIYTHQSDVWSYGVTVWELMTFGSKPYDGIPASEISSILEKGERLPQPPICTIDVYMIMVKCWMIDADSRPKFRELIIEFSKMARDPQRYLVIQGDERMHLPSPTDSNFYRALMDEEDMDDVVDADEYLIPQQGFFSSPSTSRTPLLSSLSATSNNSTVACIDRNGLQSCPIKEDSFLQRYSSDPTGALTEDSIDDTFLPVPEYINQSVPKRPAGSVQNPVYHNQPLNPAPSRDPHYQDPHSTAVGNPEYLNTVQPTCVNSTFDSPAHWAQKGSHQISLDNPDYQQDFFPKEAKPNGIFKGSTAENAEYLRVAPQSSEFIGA
T2 sequence (P00533 with tags, fused parts or gaps INS773NPH): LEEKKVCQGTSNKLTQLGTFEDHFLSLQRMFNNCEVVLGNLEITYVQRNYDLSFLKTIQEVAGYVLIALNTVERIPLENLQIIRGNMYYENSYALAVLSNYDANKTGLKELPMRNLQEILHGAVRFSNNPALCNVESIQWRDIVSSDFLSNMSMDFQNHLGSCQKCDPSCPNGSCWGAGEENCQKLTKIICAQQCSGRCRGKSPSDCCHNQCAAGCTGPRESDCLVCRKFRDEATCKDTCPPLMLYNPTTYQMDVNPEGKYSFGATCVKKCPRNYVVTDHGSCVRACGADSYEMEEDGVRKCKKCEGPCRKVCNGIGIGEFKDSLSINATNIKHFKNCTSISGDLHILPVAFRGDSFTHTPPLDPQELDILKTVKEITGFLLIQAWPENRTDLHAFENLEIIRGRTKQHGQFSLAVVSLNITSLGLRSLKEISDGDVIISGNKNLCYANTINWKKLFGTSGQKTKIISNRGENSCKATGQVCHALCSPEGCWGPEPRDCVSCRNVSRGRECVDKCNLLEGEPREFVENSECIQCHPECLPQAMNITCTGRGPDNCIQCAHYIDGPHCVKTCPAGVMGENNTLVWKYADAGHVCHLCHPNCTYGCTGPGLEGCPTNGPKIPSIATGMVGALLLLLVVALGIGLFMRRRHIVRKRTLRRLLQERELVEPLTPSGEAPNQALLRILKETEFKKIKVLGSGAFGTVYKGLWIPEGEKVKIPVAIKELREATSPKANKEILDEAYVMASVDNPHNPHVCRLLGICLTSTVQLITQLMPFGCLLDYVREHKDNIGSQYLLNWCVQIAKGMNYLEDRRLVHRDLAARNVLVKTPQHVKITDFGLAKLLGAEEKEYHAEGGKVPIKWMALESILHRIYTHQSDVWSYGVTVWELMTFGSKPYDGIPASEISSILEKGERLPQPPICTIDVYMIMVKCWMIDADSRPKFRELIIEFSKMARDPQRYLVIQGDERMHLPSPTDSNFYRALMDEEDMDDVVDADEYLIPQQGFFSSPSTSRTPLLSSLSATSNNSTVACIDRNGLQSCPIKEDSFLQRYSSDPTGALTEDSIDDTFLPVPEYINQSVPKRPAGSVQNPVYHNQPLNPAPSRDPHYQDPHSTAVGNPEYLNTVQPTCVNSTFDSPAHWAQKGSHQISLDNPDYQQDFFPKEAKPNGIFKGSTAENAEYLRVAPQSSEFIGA

SMILES | IC50 [1] | IC50 [2] | GI50 (Ba/F3 EGFR NPH ins cells) | IC50 (WT EGFR) | GI50 (Ba/F3 EGFR ASV ins cells) | GI50 (OCI-LY-10 cells) | GI50 [3] | IC50 [5] | GI50 (WT EGFR cell line A-431) | IC50 (EGFR L858R&T790M) | GI50 (DB cells) | GI50 [4] | GI50 (TMD-8 cells) | GI50 (Ri-1 cells)
C=CC(=O)Nc1cc(Nc2ncnc(Nc3cc(F)c(F)cc3C(C)(O)CC)n2)c(OC)cc1N1CC[C@@H]1CN(C)C (stereo partly drawn) [Compound 55, N-(5-(4-(4,5-difluoro-2-(2-hydroxybutan-2-yl)phenylamino)-1,3,5-triazin-2-ylamino)-2-((R)-2-((dimethylamino)methyl)azetidin-1-yl)-4-methoxyphenyl)acrylamide] | 8.4 nM | 20.1 nM | 62.6 nM | 30.9 nM | 44.1 nM | 6.68 nM | 3.8 nM | 9.8 nM | 14.6 nM | 0.8 nM | > 3000 nM | 88.9 nM | 11.5 nM | 12 nM
C=CC(=O)Nc1cc(Nc2ncnc(Nc3cc(F)c(F)cc3C(C)(O)CC)n2)c(OC)cc1N1CCC[C@@H]1CN(C)C (stereo partly drawn) [Compound 57, N-(5-(4-(4,5-difluoro-2-(2-hydroxybutan-2-yl)phenylamino)-1,3,5-triazin-2-ylamino)-2-((R)-2-((dimethylamino)methyl)pyrrolidin-1-yl)-4-methoxyphenyl)acrylamide] | 2.6 nM | 8.5 nM | 14.8 nM | 10.5 nM | 11.4 nM | 72 nM | 1.3 nM | 7.1 nM | 6.1 nM | 0.4 nM | > 3000 nM | 18.7 nM | 22.9 nM | 34.6 nM
C=CC(=O)Nc1cc(Nc2ncnc(Nc3cc(F)c(F)cc3C(C)(O)CC)n2)c(OC)cc1N1CCC[C@H]1CN(C)C (stereo partly drawn) [Compound 58, N-(5-(4-(4,5-difluoro-2-(2-hydroxybutan-2-yl)phenylamino)-1,3,5-triazin-2-ylamino)-2-((S)-2-((dimethylamino)methyl)pyrrolidin-1-yl)-4-methoxyphenyl)acrylamide] | 117 nM | 297 nM | 210 nM | 627 nM | 251 nM | 320 nM | 13.1 nM | 77.3 nM | 178 nM | 3.6 nM | > 3000 nM | 553 nM | 262 nM | 372 nM
C=CC(=O)Nc1cc(Nc2ncnc(Nc3cc(Cl)c(F)cc3C(C)(C)O)n2)c(OC)cc1N1CC[C@H](N(C)C)C1 [Compound 60, (S)-N-(5-(4-(5-chloro-4-fluoro-2-(2-hydroxypropan-2-yl)phenylamino)-1,3,5-triazin-2-ylamino)-2-(3-(dimethylamino)pyrrolidin-1-yl)-4-methoxyphenyl)acrylamide] | 11.6 nM | 28.9 nM | 48.6 nM | 50.7 nM | 76.3 nM | 13.5 nM | 2.5 nM | 22.3 nM | 25 nM | 1.3 nM | > 3000 nM | 102 nM | 11.5 nM | 38.9 nM
C=CC(=O)Nc1cc(Nc2ncnc(Nc3ccccc3C(C)(O)C(F)(F)F)n2)c(OC)cc1N(C)CCN(C)C (centres unmarked) [Compound 66, N-(2-((2-(dimethylamino)ethyl)(methyl)amino)-4-methoxy-5-(4-(2-(1,1,1-trifluoro-2-hydroxypropan-2-yl)phenylamino)-1,3,5-triazin-2-ylamino)phenyl) acrylamide] | 8.2 nM | 20.8 nM | 22.6 nM | 23.6 nM | 25.4 nM | > 3000 nM | 2.3 nM | 9.6 nM | 14.9 nM | 0.6 nM | > 3000 nM | 29.1 nM | 582 nM | > 3000 nM
C=CC(=O)Nc1cc(Nc2ncnc(Nc3cc(Cl)c(F)cc3C(C)(O)CC)n2)c(OC)cc1N(C)CCN(C)C (centres unmarked) [Compound 67, N-(5-(4-(5-chloro-4-fluoro-2-(2-hydroxybutan-2-yl)phenylamino)-1,3,5-triazin-2-ylamino)-2-((2-(dimethylamino)ethyl)(methyl)amino)-4-methoxyphenyl)acrylamide] | 4.3 nM | 13.6 nM | 32.8 nM | 26.6 nM | 21.9 nM | 20.4 nM | 2.5 nM | 10.1 nM | 18.7 nM | 0.6 nM | > 3000 nM | 46.3 nM | 16 nM | 47.9 nM
C=CC(=O)Nc1cc(Nc2nccc(Nc3cc(Cl)c(Cl)cc3C(C)(C)O)n2)c(OC)cc1N1CC[C@@H]1CN(C)C [Compound 71, (R)-N-(5-(4-(4,5-dichloro-2-(2-hydroxypropan-2-yl)phenylamino)pyrimidin-2-ylamino)-2-(2-((dimethylamino)methyl)azetidin-1-yl)-4-methoxyphenyl)a crylamide] | 19.6 nM | 51 nM | 74.7 nM | 213 nM | 89.8 nM | 12.4 nM | 8.3 nM | 31.1 nM | 34.9 nM | 1.3 nM | 2950 nM | 86.2 nM | 4.8 nM | 23.5 nM

Now from value to molecule, other results behind:

IC50 [1] | IC50 [2] | GI50 (Ba/F3 EGFR NPH ins cells) | IC50 (WT EGFR) | GI50 (Ba/F3 EGFR ASV ins cells) | GI50 (OCI-LY-10 cells) | GI50 [3] | IC50 [5] | GI50 (WT EGFR cell line A-431) | IC50 (EGFR L858R&T790M) | SMILES | GI50 (DB cells) | GI50 [4] | GI50 (TMD-8 cells) | GI50 (Ri-1 cells)
7.8 nM | 17.8 nM | 63.8 nM | 35.4 nM | 45.1 nM | 14.6 nM | 4.2 nM | 15.5 nM | 14.3 nM | 1 nM | C=CC(=O)Nc1cc(Nc2ncnc(Nc3cc(Cl)c(F)cc3C(C)(O)CC)n2)c(OC)cc1N1CC[C@@H]1CN(C)C (stereo partly drawn) [Compound 56, N-(5-(4-(5-chloro-4-fluoro-2-(2-hydroxybutan-2-yl)phenylamino)-1,3,5-triazin-2-ylamino)-2-((R)-2-((dimethylamino)methyl)azetidin-1-yl)-4-methoxyphenyl)acrylamide] | > 3000 nM | 76.6 nM | 7.07 nM | 13.4 nM
11.4 nM | 19.3 nM | 45.8 nM | 27.4 nM | 34.8 nM | 5.3 nM | 3.2 nM | 10.7 nM | 13.3 nM | 0.5 nM | C=CC(=O)Nc1cc(Nc2ncnc(Nc3cc(F)c(Cl)cc3C(C)(C)O)n2)c(OC)cc1N1CC[C@@H]1CN(C)C [Compound 62, (R)-N-(5-(4-(4-chloro-5-fluoro-2-(2-hydroxypropan-2-yl)phenylamino)-1,3,5-triazin-2-ylamino)-2-(2-((dimethylamino)methyl)azetidin-1-yl)-4-methoxyphenyl)acrylamide] | > 3000 nM | 114 nM | 3.79 nM | 84 nM
1.4 nM | 5.9 nM | 17.2 nM | 14.3 nM | 13.6 nM | 63.3 nM | 1.1 nM | 6.4 nM | 4.4 nM | 0.4 nM | C=CC(=O)Nc1cc(Nc2ncnc(Nc3cc(Cl)c(F)cc3C(C)(O)CC)n2)c(OC)cc1N1CCC[C@@H]1CN(C)C (stereo partly drawn) [Compound 63, N-(5-(4-(5-chloro-4-fluoro-2-(2-hydroxybutan-2-yl)phenylamino)-1,3,5-triazin-2-ylamino)-2-((R)-2-((dimethylamino)methyl)pyrrolidin-1-yl)-4-methoxyphenyl)acrylamide] | > 3000 nM | 23.6 nM | 11.6 nM | 14.9 nM
